From publication PMC8694143 (Microbiology Spectrum, 2021)
Entries after “also recorded” stand apart in the source; their conditions may differ. No end group written: not given here.

What was measured:
SspA [1] = experiment: SspA protease in 100 mM HEPES (pH 7.8); settings: Staphylococcus aureus (staphylococcal secreted protease), 37°C, up to 5 h
SspA [2] = experiment: SspA protease resuspended at 2 mg/mL in 100 mM HEPES (pH 7.8); settings: 37°C, up to 5 h
M. luteus ATCC 4698 = experiment: MIC determination in broth; format: cell-based, Micrococcus luteus; settings: cation-adjusted MH broth, ~10^5 CFU/mL, 30°C, 48 h
Description: M. luteus ATCC 4698, S. aureus ATCC 29213, a panel of 7 MRSA (ATCC MP-2) strains, which includes ATCC BAA-41, BAA-42, BAA-44, BAA-1683, BAA-2094, BAA-2313, and 33592, and a series of additional bacterial isolates from human and veterinary cases were used in this study (Table S6). Bacterial strains were routinely grown in lysogeny broth (LB: 10 g/L tryptone, 5 g/L yeast extract, 10 g/L NaCl) at 30°C (M. luteus) or 37°C (Staphylococcus spp.) prior to use in specific experiments described below.
The MICs were measured for bioactive peptides identified from the initial screen. Cation-adjusted Mueller-Hinton (MH) broth was used as the growth medium for MIC determination experiments. Bacterial cultures were diluted to an OD of 5 × 10^−4 (∼10^5 CFU/mL) in 200 μL MH broth mixed with peptides in a 2-fold dilution series arrayed in 96-well plates. Plates were incubated without shaking at 30 or 37°C depending on the organism.

S. aureus ATCC 29213 [3] = experiment: Spot-on-lawn assay; format: cell-based, Staphylococcus aureus; settings: 50 μg peptide (about 45 μg of SspA reaction mixture) spotted on inoculated soft agar, 37°C, 16 to 48 h
Description: Peptides (≥70% purity) were resuspended in sterile double distilled water (ddH2O) at a concentration of 10 mg/mL (gross weight), and M. luteus and S. aureus ATCC 29213 were used as indicator strains. To prepare test organisms, the optical density (OD) of overnight cultures was measured and the organisms were diluted to an initial OD of 0.05 (S. aureus) or 0.1 (M. luteus) in soft nutrient agar (0.4% wt/vol) at 50°C. Next, 3 mL of soft agar containing a test organism was overlaid on solid LB agar (1.5% wt/vol). A total of 50 μg of each peptide was spotted on the inoculated surface and plates were incubated for 16 to 48 h at 37 or 30°C.
SspA protease was resuspended at 2 mg/mL in 100 mM HEPES (pH 7.8). Peptide samples (45 μL at 10 mg/mL) were mixed with SspA (5 μL at 2 mg/mL) and incubated at 37°C for a total of 5 h. The antimicrobial activities of the reaction mixtures were assayed by spotting 5 μL (∼45 μg) of each on either M. luteus or S. aureus test organisms as described above. Additional samples were flash frozen in liquid nitrogen and stored at −80°C prior to high-pressure liquid chromatography-mass spectrometry (HPLC/MS) analysis.

MRSA ATCC 33592 = experiment: MIC determination in broth; format: cell-based, Staphylococcus aureus; settings: Table S5; STIP3 variants, highest conc. tested 100 μg/mL; cation-adjusted MH broth, ~10^5 CFU/mL, 2-fold dilution series, 37°C, 16 h
How it was run: (§1)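 Strains were grown in LB at 37°C, then diluted in cation-adjusted Mueller-Hinton broth to OD 5 × 10^−4 (∼10^5 CFU/mL). Peptides were added in 2-fold dilutions, and plates were incubated without shaking at 37°C.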

MRSA ATCC BAA-1683 = experiment: MIC determination in broth; format: cell-based, Staphylococcus aureus; settings: STIP3 variants, highest conc. tested 100 μg/mL; cation-adjusted MH broth, ~10^5 CFU/mL, 2-fold dilution series, 37°C, 16 h
How it was run: as §1

MRSA ATCC BAA-2094 = experiment: MIC determination in broth; format: cell-based, Staphylococcus aureus; settings: STIP3 variants, highest conc. tested 100 μg/mL; cation-adjusted MH broth, ~10^5 CFU/mL, 2-fold dilution series, 37°C, 16 h
How it was run: as §1

MRSA ATCC BAA-2313 = experiment: MIC determination in broth; format: cell-based, Staphylococcus aureus; settings: STIP3 variants, highest conc. tested 100 μg/mL; cation-adjusted MH broth, ~10^5 CFU/mL, 2-fold dilution series, 37°C, 16 h
How it was run: as §1

MRSA ATCC BAA-41 = experiment: MIC determination in broth; format: cell-based, Staphylococcus aureus; settings: STIP3 variants, highest conc. tested 100 μg/mL; cation-adjusted MH broth, ~10^5 CFU/mL, 2-fold dilution series, 37°C, 16 h
How it was run: as §1

MRSA ATCC BAA-42 = experiment: MIC determination in broth; format: cell-based, Staphylococcus aureus; settings: STIP3 variants, highest conc. tested 100 μg/mL; cation-adjusted MH broth, ~10^5 CFU/mL, 2-fold dilution series, 37°C, 16 h
How it was run: as §1

MRSA ATCC BAA-44 = experiment: MIC determination in broth; format: cell-based, Staphylococcus aureus; settings: STIP3 variants, highest conc. tested 100 μg/mL; cation-adjusted MH broth, ~10^5 CFU/mL, 2-fold dilution series, 37°C, 16 h
How it was run: as §1

S. aureus ATCC 29213 [4] = experiment: MIC determination in broth; format: cell-based, Staphylococcus aureus; settings: STIP3 variants, highest conc. tested 100 μg/mL; cation-adjusted MH broth, ~10^5 CFU/mL, 2-fold dilution series, 37°C, 16 h
How it was run: as §1

S. aureus = experiment: MIC of STIP3-1 alanine variants in liquid broth; format: cell-based, Staphylococcus aureus; settings: for MIC, S. aureus (alanine substituted STIP3-1, liquid broth): Table S4, maximum concentration tested 200 μg/mL, strain not given; for Activity against S. aureus in nutrient broth: at 200 μg/mL
Description: The MICs were measured for bioactive peptides identified from the initial screen. […] […] Plates were incubated without shaking at 30 or 37°C depending on the organism.

Sequence: IVETVGGLVKWILDTVKKFA
- fragment found (SspA [1]): TVKKFA
- cleaved bond (SspA [2]): D-T
- fragment found (SspA [2]): IVE and TVGGLVKWILDTVKKFA and TVGGLVKWILD

Sequence: TVAGLVKWILDTVKKFA [G3A]
- MIC, M. luteus (M. luteus ATCC 4698): 50 µg/mL
- Inhibition of S. aureus growth, spot-on-lawn (S. aureus ATCC 29213 [3]): inhibition observed on an agar surface

Sequence: TVGALVKWILDTVKKFA [G4A]
- MIC, M. luteus (M. luteus ATCC 4698): 12.5 µg/mL
- Inhibition of S. aureus growth, spot-on-lawn (S. aureus ATCC 29213 [3]): inhibition observed on an agar surface

Sequence: TVGGLVKWILATVKKFA [STIP3-2]
- MIC, S. aureus ATCC 33592 (SCCmec III) (MRSA ATCC 33592): 50 µg/mL
- MIC, S. aureus ATCC BAA 1683 (SCCmec IV) (MRSA ATCC BAA-1683): 50 µg/mL
- MIC, S. aureus ATCC BAA 2094 (SCCmec V) (MRSA ATCC BAA-2094): 50 µg/mL
- MIC, S. aureus ATCC BAA 2313 (SCCmec XI) (MRSA ATCC BAA-2313): 50 µg/mL
- MIC, S. aureus ATCC BAA 41 (SCCmec II) (MRSA ATCC BAA-41): 100 µg/mL
- MIC, S. aureus ATCC BAA 42 (SCCmec VI) (MRSA ATCC BAA-42): 50 µg/mL
- MIC, S. aureus ATCC BAA 44 (SCCmec I) (MRSA ATCC BAA-44): 100 µg/mL
- MIC, S. aureus ATCC 29213 (S. aureus ATCC 29213 [4]): 100 µg/mL
- MIC, M. luteus (M. luteus ATCC 4698): 3.13 µg/mL
- MIC, S. aureus (alanine substituted STIP3-1, liquid broth) (S. aureus): 100 µg/mL
- Activity against S. aureus in nutrient broth (S. aureus): maintained activity

Sequence: TVGGLVKWILDAVKKFA [T12A]
- MIC, M. luteus (M. luteus ATCC 4698): 12.5 µg/mL
- MIC, S. aureus (alanine substituted STIP3-1, liquid broth) (S. aureus): 100 µg/mL
- Activity against S. aureus in nutrient broth (S. aureus): maintained activity

Sequence: TVGGLVKWILDTAKKFA [V13A]
- MIC, M. luteus (M. luteus ATCC 4698): 50 µg/mL
- Activity against S. aureus in nutrient broth (S. aureus): maintained activity

Sequence: TVGGLVKWILDTVAKFA [K14A]
- MIC, M. luteus (M. luteus ATCC 4698): 12.5 µg/mL
- Inhibition of S. aureus growth, spot-on-lawn (S. aureus ATCC 29213 [3]): inhibition observed on an agar surface

Sequence: TVGGLVKWILDTVKAFA [K15A]
- MIC, M. luteus (M. luteus ATCC 4698): 25 µg/mL
- Inhibition of S. aureus growth, spot-on-lawn (S. aureus ATCC 29213 [3]): inhibition observed on an agar surface

Sequence: TVGGLVKWILDTVKKFA
- fragment found (SspA [1]): TVGGLVKWILD; also recorded: TVKKFA
- cleaved bond (SspA [2]): Asp11-T12
